Data as given in patent US20250051347A1, “BIFUNCTIONAL CHIMERIC HETEROCYCLIC COMPOUND AND USE THEREOF AS ANDROGEN RECEPTOR DEGRADER” (Hinova Pharmaceuticals, Inc., priority 2021, published 2025).
Read-outs that look alike come from different tables or passages of the source.

How the values were obtained:
[1] = molecular target: T1, androgen receptor (AR) splicing variant AR-v7 (Homo sapiens, UniProt P10275); experiment: Degradation activity on androgen receptor splicing variant AR-v7 in 22RV1 cells (ELISA); type: cell-based; conditions: AR-v7 degradation in 22RV1 cells, 48 h, class symbols
T1 construct: The degradation activity of compounds on AR-v7 in 22RV1 cells; host or cells: 22RV1 cells
T1 sequence (P10275 1-644 isoform P10275-3): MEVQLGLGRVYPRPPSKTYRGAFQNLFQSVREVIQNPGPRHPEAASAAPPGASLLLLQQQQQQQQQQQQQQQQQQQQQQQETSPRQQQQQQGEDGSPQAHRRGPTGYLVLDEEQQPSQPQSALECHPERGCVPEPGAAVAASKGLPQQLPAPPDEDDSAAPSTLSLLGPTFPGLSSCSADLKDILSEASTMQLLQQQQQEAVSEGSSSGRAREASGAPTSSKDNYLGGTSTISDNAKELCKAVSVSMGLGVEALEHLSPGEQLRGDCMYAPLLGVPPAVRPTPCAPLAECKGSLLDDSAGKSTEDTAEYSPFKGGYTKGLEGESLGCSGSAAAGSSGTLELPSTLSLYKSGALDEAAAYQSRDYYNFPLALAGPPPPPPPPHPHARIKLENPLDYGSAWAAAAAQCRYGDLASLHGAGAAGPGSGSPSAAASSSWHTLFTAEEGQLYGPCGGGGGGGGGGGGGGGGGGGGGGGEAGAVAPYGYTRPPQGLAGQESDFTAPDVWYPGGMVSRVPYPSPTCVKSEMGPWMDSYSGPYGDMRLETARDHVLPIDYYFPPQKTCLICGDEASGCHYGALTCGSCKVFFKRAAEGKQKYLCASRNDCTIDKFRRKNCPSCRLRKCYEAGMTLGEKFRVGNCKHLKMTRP

[2] = Pharmacokinetics in mice (plasma exposure after oral administration); type: in vivo; conditions: mouse, ICR mice, oral (i.g.) 3 mg/kg, read-out: After oral administration of 3 mg/kg, mouse plasma exposure AUCinf
[3] = system: 22RV1 cells
[4] = Homo sapiens, 22Rv1, 144 h, read-out: 22RV1 IC50 (nM), 22RV1 cells, 6 days culture, CCK-8, OD 450 nm

| Structure (SMILES) | DC50 [1] [nM] | AUC(0-inf) [2] [ng·h/mL] | IC50 [3, 4] [nM] | IC50 ([3]; read-out: 22RV1 IC50, 22RV1 cells, 6 days culture, CCK-8, OD 450 nm) [nM] |
| --- | --- | --- | --- | --- |
| CC(C)(c1ccc(OCc2ccnc(N3CC4(COC4)C3)n2)cc1)c1ccc(O[C@H]2C[C@H](Nc3ccc4c(c3)C(=O)N(C3CCC(=O)NC3=O)C4=O)C2)cc1 (stereo partly drawn) [Example 75] | < 10 | 5000 to 30000 | 8 | – |
| CC(C)(c1ccc(OCc2ccnc(-n3nccn3)n2)cc1)c1ccc(O[C@H]2C[C@H](Nc3ccc4c(c3)C(=O)N(C3CCC(=O)NC3=O)C4=O)C2)cc1 (stereo partly drawn) [Example 231] | 11 to 100 | 5000 to 30000 | 8.6 | – |
| CC(C)(c1ccc(O[C@H]2C[C@H](Nc3ccc4c(c3)C(=O)N(C3CCC(=O)NC3=O)C4=O)C2)cc1)c1ccc(N2CCc3cnc(N4CC5(COC5)C4)nc3C2)cc1 (stereo partly drawn) [Example 189] | < 10 | 5000 to 30000 | 9 | – |
| C=CC(c1ccc(Oc2cnc(-n3nccn3)nc2)cc1)c1ccc(O[C@H]2C[C@H](Nc3ccc4c(c3)C(=O)N(C3CCC(=O)NC3=O)C4=O)C2)cc1 (stereo partly drawn) [Example 372, 5-(((1r,3r)-3-(4-(1-(4-((2-(2H-1,2,3-triazole-2-yl)pyrimidin-5-yl)oxy)phenyl)allyl)phenoxy)cyclobutyl)amino)-2-(2,6-dioxopiperidin-3-yl)isoindolin-1,3-dione] | < 10 | 5000 to 30000 | 8 | – |
| C=CC(c1ccc(Oc2ccc(-n3nccn3)nn2)cc1)c1ccc(O[C@H]2C[C@H](Nc3ccc4c(c3)C(=O)N(C3CCC(=O)NC3=O)C4=O)C2)cc1 (stereo partly drawn) [Example 371, 5-(((1r,3r)-3-(4-(1-(4-((6-(2H-1,2,3-triazole-2-yl)pyridazine-3-yl)oxy)phenyl)allyl)phenoxy)cyclobutyl)amino)-2-(2,6-dioxopiperidin-3-yl)isoindolin-1,3-dione] | < 10 | 5000 to 30000 | 9 | – |
| CC(C)(c1ccc(OCc2ccnc(N3CC4(COC4)C3)n2)cc1)c1ccc(OC[C@@H]2CCN2c2ccc3c(c2)C(=O)N(C2CCC(=O)NC2=O)C3=O)cc1 (stereo partly drawn) [Example 312, 5-((S)-2-((4-(2-(4-((2-(2-oxa-6-azaspiro[3.3]heptan-6-yl)pyrimidin-4-yl)methoxy)phenyl)propan-2-yl)phenoxy)methyl)azetidin-1-yl)-2-(2,6-dioxopiperidin-3-yl)isoindolin-1,3-dione] | < 10 | 100 to 1000 | 22 | – |
| Cc1noc(-c2ncc(Oc3ccc(C(C)(C)c4ccc(O[C@H]5C[C@H](Nc6ccc7c(c6)C(=O)N(C6CCC(=O)NC6=O)C7=O)C5)cc4)cc3)cn2)n1 (stereo partly drawn) [Example 254] | < 10 | 5000 to 30000 | 6 | – |
| CC(C)(c1ccc(OCc2ccnc(N3CC4(COC4)C3)n2)cc1)c1ccc(N2CC(Nc3ccc4c(c3)C(=O)N(C3CCC(=O)NC3=O)C4=O)C2)cc1 (stereo not drawn) [Example 154] | < 10 | 1000 to 5000 | 7 | – |
| O=C1CCC(N2C(=O)c3ccc(N[C@H]4C[C@H](Oc5ccc(S(=O)(=O)c6ccc(OCc7ccnc(N8CC9(COC9)C8)n7)cc6)cc5)C4)cc3C2=O)C(=O)N1 (stereo partly drawn) [Example 362, 5-(((1r,3r)-3-(4-((4-((2-(2-oxa-6-azaspiro[3.3]heptane-6-yl)pyrimidin-4-yl)methoxy)phenyl)sulfonyl)phenoxy)cyclobutyl)amino)-2-(2,6-dioxopiperidin-3-yl)isoindolin-1,3-dione] | < 10 | 100 to 1000 | 20 | – |
| O=C1CCC(N2C(=O)c3ccc(N[C@H]4C[C@@H](Oc5ccc(C6(c7ccc(OCc8ccnc(N9CC%10(COC%10)C9)n8)cc7)CCC6)cc5)C4)cc3C2=O)C(=O)N1 (stereo partly drawn) [Example 359, 5-(((1s,3s)-3-(4-(1-(4-((2-(2-oxa-6-azaspiro[3.3]heptane-6-yl)pyrimidin-4-yl)methoxy)phenyl)cyclobutyl)phenoxy)cyclobutyl)amino)-2-(2,6-dioxopiperidin-3-yl)isoindolin-1,3-dione] | < 10 | 1000 to 5000 | 6 | – |
| CC(C)(c1ccc(Oc2ccc(-n3nccn3)nn2)cc1)c1ccc(O[C@H]2C[C@H](Nc3ccc4c(c3)C(=O)N(C3CCC(=O)NC3=O)C4=O)C2)cc1 (stereo partly drawn) [Example 324] | < 10 | 5000 to 30000 | 4 | – |
| CCC(CC)(c1ccc(Oc2ccc(C(C)O)nn2)cc1)c1ccc(O[C@H]2C[C@H](Nc3ccc4c(c3)C(=O)N(C3CCC(=O)NC3=O)C4=O)C2)cc1 (stereo partly drawn) [Example 175, 2-(2,6-dioxopiperidin-3-yl)-5-(((1r,3r)-3-(4-(3-(4-((6-(1-hydroxylethyl)pyridazine-3-yl)oxy)phenyl)pentan-3-yl)phenoxy)cyclobutyl)amino)isoindolin-1,3-dione] | < 10 | 1000 to 5000 | 4 | – |
| CN1CCC(Nc2nccc(COc3ccc(C(C)(C)c4ccc(O[C@H]5C[C@H](Nc6ccc7c(c6)C(=O)N(C6CCC(=O)NC6=O)C7=O)C5)cc4)cc3)n2)CC1 (stereo partly drawn) [Example 232] | < 10 | 100 to 1000 | 8 | – |
| Cc1nc(-c2ncc(Oc3ccc(C4(c5ccc(O[C@H]6C[C@H](Nc7ccc8c(c7)C(=O)N(C7CCC(=O)NC7=O)C8=O)C6)cc5)CC4)cc3)cn2)no1 (stereo partly drawn) [Example 212] | < 10 | 5000 to 30000 | 14 | – |
| CC1(O)CN(c2nccc(COc3ccc(C(C)(C)c4ccc(O[C@H]5C[C@@H](Nc6ccc7c(c6)C(=O)N(C6CCC(=O)NC6=O)C7=O)C5)cc4)cc3)n2)C1 (stereo partly drawn) [Example 455] | < 10 | 1000 to 5000 | 5 | – |
| CC(=O)c1ncc(Oc2ccc(C(C)(C)c3ccc(O[C@H]4C[C@H](Nc5ccc6c(c5)C(=O)N(C5CCC(=O)NC5=O)C6=O)C4)cc3)cc2)cn1 (stereo partly drawn) [Example 119, 5-(((trans)-3-(4-(2-(4-((2-acetylpyrimidin-5-yl)oxy)phenyl)propan-2-yl)phenoxy)cyclobutyl)amino)-2-(2,6-dioxopiperidin-3-yl) isoindolin-1,3-dione] | < 10 | 5000 to 30000 | 2 | – |
| CC(C)(c1ccc(Oc2cnc(N3CC4(COC4)C3)nc2)cc1)c1ccc(O[C@H]2C[C@H](Nc3ccc4c(c3)C(=O)N(C3CCC(=O)NC3=O)C4=O)C2)cc1 (stereo partly drawn) [Example 248] | < 10 | 1000 to 5000 | 23 | – |
| Cc1nnc(-c2cccc(Oc3ccc(C(C)(C)c4ccc(O[C@H]5C[C@H](Nc6ccc7c(c6)C(=O)N(C6CCC(=O)NC6=O)C7=O)C5)cc4)cc3)n2)o1 (stereo partly drawn) [Example 423] | < 10 | 5000 to 30000 | 3 | – |
| Cc1nc(-c2ncc(Oc3ccc(C(C)c4ccc(O[C@H]5C[C@H](Nc6ccc7c(c6)C(=O)N(C6CCC(=O)NC6=O)C7=O)C5)cc4)cc3)cn2)no1 (stereo partly drawn) [Example 99] | < 10 | 5000 to 30000 | – | 17 |
| CC(C)(c1ccc(OCc2ccnc(-c3nnco3)n2)cc1)c1ccc(O[C@H]2C[C@@H](Nc3ccc4c(c3)C(=O)N(C3CCC(=O)NC3=O)C4=O)C2)cc1 (stereo partly drawn) [Example 464, 5-(((1s,3s)-3-(4-(2-(4-((2-(1,3,4-oxadiazol-2-yl)pyrimidin-4-yl)methoxy)phenyl)propan-2-yl)phenoxy)cyclobutyl)amino)-2-(2,6-dioxopiperidin-3-yl)isoindolin-1,3-dione] | < 10 | 100 to 1000 | 4 | – |
| CC(C)(c1ccc(OCc2ccnc(-n3nccn3)n2)cc1)c1ccc(O[C@H]2C[C@@H](Nc3ccc4c(c3)C(=O)N(C3CCC(=O)NC3=O)C4=O)C2)cc1 (stereo partly drawn) [Example 446, 5-(((1s,3s)-3-(4-(2-(4-((2-(2H-1,2,3-triazol-2-yl)pyrimidin-4-yl)methoxy)phenyl)propan-2-yl)phenoxy)cyclobutyl)amino)-2-(2,6-dioxopiperidin-3-yl)isoindolin-1,3-dione] | 11 to 100 | 5000 to 30000 | 9 | – |
| Cc1noc(-c2nccc(Oc3ccc(C(C)(C)c4ccc(O[C@H]5C[C@H](Nc6ccc7c(c6)C(=O)N(C6CCC(=O)NC6=O)C7=O)C5)cc4)cc3)n2)n1 (stereo partly drawn) [Example 426] | < 10 | 1000 to 5000 | 7 | – |
